Tests used:
[1] = test system: H146 cells; conditions: human, 72 h
Description: (§1) To determine specific cytotoxicity, we used Cell Counting Kit-8 (Dojindo Molecular Technologies, Rockville, Md.) as previously described (50).

[2] = test system: H446 cells; conditions: human, 72 h
Description: as §1

[3] = test system: H446 spheroids; experiment: H446 spheroid growth, IncuCyte Live-Cell Analysis; type: cell-based; conditions: LB100 20 μM, up to 72 hours
Description: FIGS. 2A-2H depict the effect of LB-100 on H446 spheroid growth. FIG. 2A: Morphology of a single spheroid of H446 cells on days one and nine. Spheroids grow continuously and H&E staining is represented. FIG. 2B: Spheroid's growth in response to LB-100 treatment was recorded with IncuCyte Live-Cell Analysis System. FIG. 2C: Cytotoxicity effect of LB100 was recorded with IncuCyte Live-Cell Analysis System in the presence of LB-100 and IncuCyte Cytotox reagent in green fluorescence. […] Scale bar 100 μm. (FIGS. 2E and 2G). Effect of LB100 and carboplatin alone or in combination was monitored using IncuCyte Live Cell system for 70 h.
We further investigated the effect of LB100 and the chemotherapy drugs on spheroids formed by SCLC cells. Three cell lines H524, H69 and H446 were tested. The H524 and H69 cells formed large soft clumps in low-attachment 96 well plates. […] H446 spheroids treated with or without 20 μM LB100 were imaged in brightfield (BF) and using green fluorescence over 72 hours. The size of the spheroids was measured using an automated software algorithm that masked the largest BF in the field of view (label-free, real-time live cell assay for spheroids: IncuCyte bright-field analysis). […]
H446 cells were plated at a density of 10,000 cells per well and spheroid allowed to form (72-hours). […] Spheroids were imaged every 4 hours for 6 days and analyzed using the IncuCyte ZOOM software.

[4] = test system: H69 cells; experiment: BiOLOG Phenotype Microarray carbon substrate utilization; type: cell-based; conditions: LB100 20 μM overnight
Description: FIGS. 4A-4F depict a reactome pathway analysis of PamGene PTKs and STKs after LB-100 treatment of H524 cells and Biolog phenotype MicroArray. […] Table includes 10 carbon sources affected by LB-100 (n=3). […] P<0.001 (***) for control (untreated cells) vs. LB-100. FIG. 4D: Amplex Red Glucose/Oxidase assay kit was used to measure glucose level in cell culture media. […] Glucose concentration detected in initial medium and counted as 100%. Subtracting final medium level of glucose from initial glucose medium concentration yielded % glucose in the medium with cells (n=3). Effect of LB-100 on MET phosphorylation. FIG. 4E: H524 and H69 cells were treated overnight with LB-100 (H524—5 μM and H69—20 μM) following by stimulation with 100 ng/ml HGF in 10 min. Cells were collected and lysed for WB analysis with pMET and total MET antibody. Pan-actin was used as loading control (n=3). FIG. 4F: H524 cell lysates (control, LB-100, carboplatin and combination (LB-100/carboplatin) were analyzed by western blots to check phosphorylation status of MET at Ser985 and Tyr1234/1235. Actin was used as a loading control (n=3). […]
Phenotype Microarrays (PMs) use a patented redox chemistry, employing cell respiration as a universal reporter. […] The redox assay provides for both amplification and precise quantitation of phenotypes. […]

## C[NH+]1CCN(C(=O)C2C(C(=O)O)[C@H]3CC[C@@H]2O3)CC1 (stereo in doubt) [LB-100, 3-[(4-Methylpiperazin-1-yl)carbonyl]-7-oxabicyclo[2.2.1]heptane-2-carboxylic acid]
[1]
  IC50: > 20 µM
[2]
  IC50: 6.9 µM
[3]
  spheroid size (bright-field analysis): spheroid shrinkage
[4]
  reduction of glycogen consumption: more than 2.7 fold
  reduction of α-D-Glucose consumption: more than 6 fold
